Laboratory results reported in patent US11219625B2, “Inhibitors of N-linked glycosylation and methods using same” (YALE UNIVERSITY, priority 2015, dated 2022).

What was measured:
[1] = system: PC9 cells; test: Assessment of senescence, autofluorescence by flow cytometry, PC9; assay type: cell-based; settings: PC9, NGI-1 treatment for 5 days
Method: FIGS. 5A-5G illustrate NGI-1 induces G1 arrest and senescence in EGFR addicted tumor cells. FIG. 5A illustrates cell cycle distribution of PC9 cells after 24 h NGI-1 treatment for 24 h determined by flow cytometry. […] FIG. 5B illustrates cell cycle distribution of A549 cells after 24 h NGI-1 treatment for 24 h determined by flow cytometry. FIG. 5C illustrates western blot time course of cyclin D1 expression in PC9 and A549 cells after NGI-1 treatment. FIG. 5D illustrates quantitative real-time PCR analysis of PC9 and A549 cells. A time course of cyclin D1 expression levels relative to GAPDH is represented. […] FIG. 5F illustrates senescence of PC9 cells explored by: cell autofluorescence, measured by flow cytometry using a detector for PE/YFP; lipofuscin accumulation, detected by confocal laser scanning microscopy using an excitation laser of 405 nm with acquired signals from spectrums of yellow 575-620 nm; and morphology changes, enlarged vs. flattened. […] Significance was calculated using a T test (*p<0.05. **p<0.01). FIG. 5G illustrates senescence of A549 cells explored by: cell autofluorescence, measured by flow cytometry using a detector for PE/YFP; lipofuscin accumulation, detected by confocal laser scanning microscopy using an excitation laser of 405 nm with acquired signals from spectrums of yellow 575-620 nm; and morphology changes, enlarged vs. flattened. […]

[2] = system: A549 cells; test: Apoptosis by flow cytometry (Annexin-V, 7-AAD), A549; assay type: cell-based; settings: A549, NGI-1 10 μM for 2 or 5 days, or Tn 1 μM
Method: Analysis of apoptosis susceptibility in A549 and PC9 NSCLC cell lines followed treatment with NGI-1 10 μM or Tn 1 μM for 2 days was done by flow cytometry after staining the cells with Annexin-V (early apoptosis) and 7-AAD (viability dye). […] FIG. 9C: Western blot of BIP protein for A549 and PC9 cells after treatment with 10 μM NGI-1 for 6, 12 or 24 h. The expression of GAPDH was used as a loading control.

**Q.** How did the “increase of autofluorescence by flow cytometry” value [1] turn out when Cc1cnc(NC(=O)c2cc(S(=O)(=O)N(C)C)ccc2N2CCCC2)s1 [NGI-1, 5-(N,N-Dimethylsulfamoyl)-N-(5-methylthiazol-2-yl)-2-(pyrrolidin-1-yl)benzamide] was run?
**A.** The value was < 60%.

**Q.** And the induction of apoptosis [2]?
**A.** The induction of apoptosis was “did not induce apoptosis”.
